Entries after “also recorded” stand apart in the source; their conditions may differ. Structures can show the parent of a compound that is named as a salt.
Legend:
[1] = target: T1, glucagon receptor (rat hepatocyte membrane) (Rattus norvegicus, UniProt P30082); test: Glucagon receptor binding inhibition; details: SD rat liver cell membrane, 50 pM (3-[125I]iodotyrosyl10)glucagon, 25° C., 120 minutes; read-out: IC50 (nM) Rat, glucagon receptor binding inhibitory activity
T1 construct: A cell membrane was prepared from the liver of an SD rat; from tissue; host or cells: SD rat liver (cell membrane fraction)
Description: The composition of the reaction solution used in the receptor binding inhibition experiment was prepared according to the method described in Bioorg. Med. Chem. Lett., 1992, 12, 915-918, using the following methods. (3-[^125I] iodotyrosyl^10) Glucagon and a rat hepatocyte membrane were obtained or prepared according to the following methods.
(3-[^125I] iodotyrosyl^10)Glucagon was obtained according to the following method at PerkinElmer Co., Ltd (Great Britain). Using a chloramine T method, glucagon (Peptide Institute) was labeled with [^125I], and (3-[^1251] iodotyrosyl ^10)Glucagon was separated using HPLC. Purchased from PerkinElmer Co., Ltd. (Great Britain), was a product obtained by dissolving it in an aqueous solution containing 10 mM citric acid, 5% lactose, 0.2% cysteine HCl, and 0.25% BSA so that the radioactivity was 3.7 MBq/mL at reference date, followed by freeze-drying. The product was re-dissolved in a 0.3-TIU/mL aprotinin aqueous solution so that the radioactivity was 3.7 MBq/mL at reference date, and it was freeze-stored at −15 to −40° C. for use.
A cell membrane was prepared from the liver of an SD rat according to the method described on pages 31 to 33 of Zikken Seibutsugaku Kouza 6, Saibou bunkakuhou (Experimental Biology Lecture 6, Cell Fraction Method) (Maruzen Co., Ltd.). The resulting cell membrane was freeze-stored at −70 to −85° C. for use.
The cell membrane that had been dissolved at room temperature and then suspended using a Physcotron (Microtec Co., Ltd. was added to a 50-mM Tris-HCl buffer (pH 7.2) containing 1 mg/mL BSA (Sigma-Aldrich), 0.1 mg/mL bacitracin (Wako Pure Chemical Industries, Ltd.), 1% DMSO, 0.01% acetic acid, and 50 pM) (3-[^125I] iodotyrosyl^10) Glucagon (pH 7.2) (each value indicating the final concentration and the radioactivity of (3-[^125I] iodotyrosyl^10) Glucagon calculated on the measurement date) to give a total amount of 0.2 mL. The reaction was started and incubation was performed at 25° C. for 120 minutes. The concentration of the cell membrane was adjusted so that 10% of the added)(3-[^1251] iodotyrosyl^100 Glucagon was equal to the total amount of binding.
Using a GF/C filter (Whatman International Ltd., Great Britain) immersed for more than 15 minutes in 0.3% polyethyleneimine (Sigma-Aldrich, Co., LLC), whose pH was adjusted to 7.2 by adding hydrochloric acid, the reaction solution was subjected to suction filtration to recover (3-[^125I] iodotyrosyl)Glucagon bound to the membrane. The filter was washed 3 times with an ice-cooled 50-mM Tris-HCl buffer (pH 7.4), and the radioactivity of the filter was measured by using a γ counter (1470 WIZARD γ-counter)(Wallac). The amount of specific binding was measured by subtracting the amount of nonspecific binding determined in the presence of 10 μM glucagon (Peptide Institute, Inc.) from the total amount of binding.
The amount of specific binding in the absence of a test compound was regarded as 100%, and inhibitions (%) at various concentrations of test compounds were calculated. The concentration at 50% inhibition of binding (IC50) was calculated using a nonlinear least squares method.

ob/ob mice [2] = test: Combination use with metformin, HbA1c in ob/ob mice; type: in vivo; details: oral; for HbAlc value: single use, 4 weeks (Example 69 3 mg/kg twice a day; metformin 100 mg/kg twice a day)
Description: An experiment using the compound of Example 69 and metformin in combination was performed to examine the effect on the HbAlc value in ob/ob mice.
B6.V-Lepob/J (ob/ob) mice and control B6.V-Lepob/J (?/+) mice (male, 6 to 7 weeks old, n=8, Charles River Japan) were used. The compound of Example 69 (3 mg/kg, twice a day) suspended in 0.5% methyl cellulose, and metformin (100 mg/kg, twice a day) dissolved in the solvent were orally administered repeatedly for 4 weeks singly or in combination.

ob/ob mice [3] = test: Blood sugar decrease in ob/ob mice (hyperglycemia and impaired fasting glycemia); type: in vivo
Excerpt: Effects of the compound of Example 69 on hyperglycemia and impaired fasting glycemia in ob/ob mice, which are type II diabetes models, were examined.
B6.V-Lepob/J (ob/ob) mice and control B6.V-Lepob/J (?/+) mice (male, 6 to 7 weeks old, n=8, Charles River Japan Inc.) were used. To examine the effect on hyperglycemia, feed was removed from the cage at the same time as the start of drug administration, and to examine the effect on impaired fasting glycemia, feed was removed from the cage about 20 hours before the scheduled time of drug administration. Under each experimental condition, the mice were allowed free access to drinking water. 2, 4 and 6 hours after the forced oral administration of the compound (0.01-1.0 mg/kg) of Example 69, which had been suspended in 0.5% methyl cellulose, the blood sugar levels were examined.

ob/ob mice [4] = test: Combination use with DPPIV inhibitor sitagliptin, postprandial hyperglycemia in ob/ob mice; type: in vivo
Description: B6.V-Lepob/J (ob/ob) mice and control B6.V-Lepob/J (?/+) mice (male, 6 to 7 weeks old, n=8, Charles River Japan) were used. […] One hour later, liquid food (ensure H, Abbott Japan, Co., Ltd., 1.5 kcal/mL) was orally administered. The blood sugar levels immediately before, and 15, 30, 60, and 90 minutes after administration of the liquid food were measured.

ob/ob mice [5] = test: Combination use with pioglitazone, HbA1c in ob/ob mice; type: in vivo; details: oral
Description: An experiment using the compound of Example 69 and pioglitazone in combination was performed to examine the effect on the HbAlc values in ob/ob mice.
B6.V-Lepob/J (ob/ob) mice and control B6.V-Lepob/J (?/+) mice (male, 6 to 7 weeks old, n=8, Charles River Japan) were used. The compound of Example 69 suspended in 0.5% methyl cellulose (3 mg/kg, twice a day), and pioglitazone (1 mg/kg, once a day) were orally administered repeatedly for 4 weeks singly or in combination.
The effects were compared based on the […] (HbA1c) value, and a diabetes-like state (prolonged hyperglycemic state) was confirmed by HbA1c increase in the ob/ob mice.

[6] = combination use of Example 69 (0.1 mg/kg) and sitagliptin (5 mg/lm), single oral dose
[7] = single use, single oral dose (Example 69 0.1 mg/kg; sitagliptin 5 mg/lm) one hour before liquid food

T1 sequence (P30082 27-485): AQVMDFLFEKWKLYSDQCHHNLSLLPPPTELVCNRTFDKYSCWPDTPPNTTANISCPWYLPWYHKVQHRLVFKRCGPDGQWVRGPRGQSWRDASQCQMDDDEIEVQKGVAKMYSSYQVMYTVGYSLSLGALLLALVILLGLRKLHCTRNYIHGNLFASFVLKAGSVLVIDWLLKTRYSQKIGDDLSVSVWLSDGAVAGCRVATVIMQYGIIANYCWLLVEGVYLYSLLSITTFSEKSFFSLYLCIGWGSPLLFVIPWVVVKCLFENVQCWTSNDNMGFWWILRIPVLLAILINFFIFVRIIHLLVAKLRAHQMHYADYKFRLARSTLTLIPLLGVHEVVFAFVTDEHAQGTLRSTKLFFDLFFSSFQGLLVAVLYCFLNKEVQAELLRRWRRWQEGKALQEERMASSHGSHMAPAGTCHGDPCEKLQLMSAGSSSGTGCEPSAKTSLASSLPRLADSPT

IC50 [1] [nM]	SMILES	further results
0.13	CC(C)(C)c1ccc(CNc2ccc(-c3ccoc3C(=O)NNC(=O)c3ccc(O)c([N+](=O)[O-])c3)cc2)cc1 [Example 6]	–
5.8	C[C@@H](Nc1ccc(-c2ccoc2C(=O)NNC(=O)c2ccc(O)c([N+](=O)[O-])c2)cc1)c1ccc(F)cc1 [Example 76]	–
0.62	C[C@H](Nc1ccc(-c2ccoc2C(=O)NNC(=O)c2ccc(O)c([N+](=O)[O-])c2)cc1)c1ccccc1 [Example 78]	–
0.14	C[C@H](Nc1ccc(-c2ccoc2C(=O)NNC(=O)c2ccc(O)c([N+](=O)[O-])c2)cc1)c1ccc(Cl)cc1 [Example 72]	–
0.11	C[C@H](Nc1ccc(-c2ccoc2C(=O)NNC(=O)c2ccc(O)c([N+](=O)[O-])c2)cc1)c1ccc(F)cc1 [Example 68, 3-(4-{[(1S)-1-(4-fluorophenyl)ethyl]amino}phenyl)-2-furan carboxylic acid-2-(4-hydroxy-3-nitrobenzoyl)hydrazide]	–
0.22	Cc1ccc(C(C)Nc2ccc(-c3ccoc3C(=O)NNC(=O)c3ccc(O)c([N+](=O)[O-])c3)cc2)cc1 (stereo not drawn) [Example 1, 3-(4-{[1-(4-methylphenyl)ethyl]amino}phenyl)-2-furan carboxylic acid-2-(4-hydroxy-3-nitrobenzoyl)hydrazide hydrochloride]	–
0.16	Cc1cccc([C@H](C)Nc2ccc(-c3ccoc3C(=O)NNC(=O)c3ccc(O)c([N+](=O)[O-])c3)cc2)c1 [Example 73]	–
0.043	Cc1ccc([C@H](C)Nc2ccc(-c3ccoc3C(=O)NNC(=O)c3ccc(O)c([N+](=O)[O-])c3)cc2)cc1C [Example 71]	–
0.13	CCc1ccc([C@H](C)Nc2ccc(-c3ccoc3C(=O)NNC(=O)c3ccc(O)c([N+](=O)[O-])c3)cc2)cc1 [Example 70]	–
0.085	Cc1ccc([C@H](C)Nc2ccc(-c3ccoc3C(=O)NNC(=O)c3ccc(O)c([N+](=O)[O-])c3)cc2)cc1 [Example 69]	duration of the blood sugar decreasing effect (ob/ob mice [3]; high-dose administration, oral): continued even 6 hours after the administration; blood sugar level relative to the healthy (control) mouse (ob/ob mice [3]; oral 0.01-1.0 mg/kg): not reduced to below the level of the healthy mouse; blood sugar decreasing effect at 2 hours after administration (ob/ob mice [3]; oral 0.01-1.0 mg/kg, any dosage, under each experimental condition (hyperglycemia; impaired fasting glycemia)): remarkable blood sugar decreasing effect; area under the blood concentration-time curve (blood sugar) after liquid food (ob/ob mice [4]; [6]): normalized; blood sugar level 15 minutes after the administration of liquid food (ob/ob mice [4]; [6]): normalized; hypoglycemia (ob/ob mice [4]; [6]): without causing hypoglycemia; postprandial hyperglycemia inhibitory effect versus the single use of each agent (ob/ob mice [4]; combination use of Example 69 and sitagliptin (FIGS. 1 and 2)): extremely stronger postprandial hyperglycemia inhibitory effect; area under the blood concentration-time curve (blood sugar) after liquid food (ob/ob mice [4]; [7]): normalized; blood sugar increase 15 minutes after the administration of liquid food (ob/ob mice [4]; [7]): could not normalize; HbAlc reduction effect versus single use (ob/ob mice [2]; combination use of Example 69 (3 mg/kg twice a day) and metformin (100 mg/kg twice a day), 4 weeks): higher HbAlc reduction effect; also recorded: extremely stronger HbAlc reduction effect; HbAlc value (ob/ob mice [2]): HbAlc reduction; HbA1c reduction effect versus single use (ob/ob mice [5]; combination use of Example 69 (3 mg/kg twice a day) and pioglitazone (1 mg/kg once a day), 4 weeks): higher HbA1c reduction effect; also recorded: extremely stronger HbA1c reduction effect; HbA1c value (ob/ob mice [5]; single use, 4 weeks (Example 69 3 mg/kg twice a day; pioglitazone 1 mg/kg once a day)): attained HbA1c reduction
0.12	Cc1cc([C@H](C)Nc2ccc(-c3ccoc3C(=O)NNC(=O)c3ccc(O)c([N+](=O)[O-])c3)cc2)ccc1Cl [Example 75]	–
0.74	C[C@H](Nc1ccc(-c2ccoc2C(=O)NNC(=O)c2ccc(O)c(C#N)c2)cc1)c1ccc(F)cc1 [Example 79, 3-(4-{[(1S)-1-(4-fluorophenyl)ethyl]amino}phenyl)-2-furan carboxylic acid-2-(3-cyano-4-hydroxybenzoyl)hydrazide]	–

The remaining lines, values behind:

SMILES	IC50 [1] [nM]	further results
N#Cc1cc(C(=O)NNC(=O)c2occc2-c2cccc(N)c2)ccc1O [Compound E, reference compound]	9800	–
CC(=O)N(Cc1ccccc1)c1cccc(-c2ccoc2C(=O)NNC(=O)c2ccc(O)c(C#N)c2)c1 [Compound B, reference compound]	1200	–
CN(C)C(=N)N=C(N)N [metformin, reference compound]	–	HbAlc value (ob/ob mice [2]): HbAlc reduction
O=C(NNC(=O)c1occc1-c1ccc(NCc2ccc(OC(F)(F)F)cc2)cc1)c1ccc(O)c([N+](=O)[O-])c1 [Example 7]	0.34	–
CC(=O)Nc1cccc(-c2ccoc2C(=O)NNC(=O)c2ccc(O)c(C#N)c2)c1 [Compound C, reference compound]	340	–
C[C@H](Nc1ccc(-c2ccoc2C(=O)NNC(=O)c2ccc(O)c([N+](=O)[O-])c2)cc1)C1CCCCC1 [Example 77]	0.35	–
N#Cc1cc(C(=O)NNC(=O)c2occc2-c2cccc(NC(=O)c3ccccc3)c2)ccc1O [Compound A, reference compound]	2800	–
N#Cc1cc(C(=O)NNC(=O)c2occc2-c2cccc(NC(=O)OCc3ccccc3)c2)ccc1O [Compound D, reference compound]	400	–

Source: patent publication US8883824B2, “3-(4-aminophenyl)-2-furancarboxylic acid derivative and pharmaceutically acceptable salt thereof” (Sumitomo Dainippon Pharma Co., Ltd., priority 2009, dated 2014)
